Reference: patent US4419355A, “Condensed as-triazine derivatives and method of using the same” (Egyt Gyogyszervegyeszeti Gyar, priority 1980, dated 1983)

Tests used:
[1] = test system: tetrabenazine ptosis; assay: Tetrabenazine antagonism on mice; details: for ED50: Mus musculus, po; for Therapeutic index LD50/ED50: p.o., mice, tetrabenazine antagonism
Procedure: Groups of animals consisting of 10-20 mice each were examined. A 0.9% sodium chloride solution was administered to the mice of the control group in a dosage of 20 ml/kg. After 30 minutes 50 mg/kg of tetrabenazine were administered. The animals with closed interpalpebral zone were counted 30, 60, 90 and 120 minutes after the administration of the tetrabenazine. The data were summarized and the inhibition in comparison with the control was determined.

[2] = test system: tetrabenazine ptosis; assay: Tetrabenazine ptosis antagonism on rats; format: in vivo; details: for ED50: Rattus norvegicus, read-out: Tetrabenazine ptosis ant. ED50; for Therapeutic index: tetrabenazine ptosis ant.
Procedure: (§1) The experiments were carried out on the analogy of the tests described at point (a).

[3] = Acute toxicity on mice (oral); details: mouse, in vivo, p.o., CFLP mice, 20 ml/kg, 4 days observation
Procedure: The acute toxicity of the new compounds according to the invention was determined on white mice of both sexes weighing 18-24 g belonging to the strain CFLP. Administration was effected with an oral dosage of 20 ml/kg. After treatment the animals were kept under observation for 4 days.

[4] = Acute toxicity on rats (oral); details: rat, in vivo, p.o., Wistar rats, 0.5% suspension with carboxymethylcellulose
Procedure: The acute toxicity was investigated also on Wistar rats. A 0.5% suspension prepared from the test compound and carboxymethylcellulose was administered orally to the animals.

[5] = test system: Reserpine-ethanol narcose; assay: Reserpine-ethanol narcose antagonism on rats; format: in vivo; details: for ED50: Rattus norvegicus, read-out: Reserpine-ethanol narcose ant. ED50; for Ther. index: reserpine-ethanol narcose ant.
Procedure: as §1

[6] = test system: yohimbine toxicity; assay: Potentiation of yohimbine toxicity on mice; format: in vivo; details: for ED50: Mus musculus, po; for Therapeutic index LD50/ED50: p.o., mice, yohimbine potentiation
Procedure: The experiments were carried out by the method of Quinton et al. The test compound was administered orally in a volume of 20 ml/kg half an hour before the administration of the standard yohimbine dose.

Structure (SMILES) | ED50 [1] [mg/kg] | Therapeutic index LD50/ED50 [1] | ED50 [2] [mg/kg] | Therapeutic index [2] | LD50 at 96 h [3] [mg/kg] | LD50 [4] [mg/kg] | ED50 [5] [mg/kg] | Ther. index [5] | ED50 [6] [mg/kg] | Therapeutic index LD50/ED50 [6]
CN(C)CCC=C1c2ccccc2CCc2ccccc21 [Amitriptylin, reference compound] | 12 | 18.75 | 11.5 | 46.1 | 225 | 530 | 40 | 13.25 |  | 
c1ccc(-c2ncn[n+]3ccccc23)cc1 [Compound A, 1-phenyl-pyrido[2,1-f]-as-triazinium bromide] | 30 | 46.7 |  |  | 1400 |  |  |  | 66 | 21.2
Clc1ccc(-c2ncn[n+]3ccccc23)cc1 [Compound B, 1-(4-chlorophenyl)-pyrido[2,1-f]-as-triazinium bromide] | 14 | 64.2 |  |  | 900 |  |  |  | 50 | 18.0
Clc1ccc(-c2ncn[n+]3ccc4ccccc4c23)cc1 [Compound C, 1-(4-chlorophenyl)-as-triazino[6,1-a]-isoquinolinium bromide] | 3.2 | 187.5 | 5.6 | 178.6 | 600 | 1000 | 40 | 25.0 | 3.5 | 171.4
